How the values were obtained:
[1] = molecular target: PARP1 (Homo sapiens, UniProt P09874); experiment: PARP profiling, parsylation of immobilized histone; format: biochemical; settings: IWR compounds 10 μM
Method: (§1) Performed by BPS Bioscience Inc., San Diego by following the BPS PARP or TNKS assay kit protocols. The enzymatic reactions were conducted in duplicate at room temperature for 1 hr in a 96 well plate coated with histone substrate. […] of reaction buffer (Tris.HCl, pH 8.0) contains NAD^+, biotinylated NAD^+, activated DNA, recombinant PARP enzyme and 10 μM of the test compound. […] After enzymatic reactions, 50 μL of Streptavidin-horseradish peroxidase was added to each well and the plate was incubated at room temperature for an additional 30 min. 100 μL of developer reagents were added to wells and luminescence was measured using a BioTek Synergy™ 2 microplate reader.

[2] = molecular target: PARP7 (Homo sapiens, UniProt Q7Z3E1); experiment: PARP profiling, parsylation of immobilized histone; format: biochemical; settings: IWR compounds 10 μM
Method: as §1

[3] = molecular target: PARP11 (Homo sapiens, UniProt Q9NR21); experiment: PARP profiling, parsylation of immobilized histone; format: biochemical; settings: IWR compounds 10 μM
Method: as §1

[4] = molecular target: PARP6 (Homo sapiens, UniProt Q2NL67); experiment: PARP profiling, parsylation of immobilized histone; format: biochemical; settings: IWR compounds 10 μM
Method: as §1

[5] = test system: HeLa cells; experiment: Terminal restriction fragment (TRF) telomere length assay; format: cell-based, human; settings: up to 40 population doublings, FIGS. 6A-B
Method: FIGS. 6A-6C show Tnks inhibitors but not a Porcn inhibitor induce telomeric shortening. […] HeLa cells were incubated with IWR-1, IWR-8, or IWP-6 at various concentrations for the indicated number of population doublings (PD) and telomere length measured by terminal restriction fragment (TRF) analysis. Density of radioprobe hybridization relative to the vertical distance from the largest molecular weight marker was quantified using ImageJ and the point of highest density in each lane marked by a dark line. Position of control telomere restricted fragment signal is indicated with dotted line. Lanes with insufficient strength in labeling or that were disrupted with blemishes during experimental processing were not quantified. […] The same assay described in “A” was used to test the Porcn inhibitor IWP-2. (FIG. 6C) Model of Tnks-dependent regulation of Wnt/β-catenin transcriptional and telomere length maintenance in human cells. Excessive Terf1 binding to DNA in the absence of Tnks-mediated Terf1 parsylation results in replication fork stalling in telomeres (Munoz, et al., 2009; Ohki and Ishikawa, 2004) which then presumably results in telomere shortening. […]
1×10^6 cells were collected and washed with PBS. […] Gels were exposed to a Phosphorlmager screen overnight and analyzed using a Typhoon Phosphorlmager scanner system (Molecular Dynamics). […]

[6] = test system: β-catenin activity in DLD-1 cells; experiment: Wnt/β-catenin specific luciferase reporter (SuperTopFlash) in DLD-1 cells; format: cell-based; settings: FIG. 2B
Method: Representative IWRs from each chemotype were evaluated for their ability to inhibit purified recombinant Tnks1 protein (Tnks1 […] protein). Parsylation of immobilized histone protein was determined by colorimetric detection of incorporated biotinylated NAD+ in 96 well format.
Luciferase Reporter Assays.
Assays were executed as described using a Dual Luciferase kit (Promega), and SuperTopFlash and control SV40-driven Renilla luciferase reporters (SV40-Ren luc) (Chen, et al., 2009).

[7] = test system: Axin2 in DLD-1 cells; experiment: Expression of Axin2 in DLD-1 cells; format: cell-based; settings: exposure for 2 h
From the text: Aberrant transcriptional induction of Wnt/β-catenin target genes is typically observed in CRC cells that harbor loss-of-function mutations in the APC tumor suppressor. […] See Chen et al. (2007), which is incorporated herein by reference.

Sequence of PARP1 (P09874 whole entry): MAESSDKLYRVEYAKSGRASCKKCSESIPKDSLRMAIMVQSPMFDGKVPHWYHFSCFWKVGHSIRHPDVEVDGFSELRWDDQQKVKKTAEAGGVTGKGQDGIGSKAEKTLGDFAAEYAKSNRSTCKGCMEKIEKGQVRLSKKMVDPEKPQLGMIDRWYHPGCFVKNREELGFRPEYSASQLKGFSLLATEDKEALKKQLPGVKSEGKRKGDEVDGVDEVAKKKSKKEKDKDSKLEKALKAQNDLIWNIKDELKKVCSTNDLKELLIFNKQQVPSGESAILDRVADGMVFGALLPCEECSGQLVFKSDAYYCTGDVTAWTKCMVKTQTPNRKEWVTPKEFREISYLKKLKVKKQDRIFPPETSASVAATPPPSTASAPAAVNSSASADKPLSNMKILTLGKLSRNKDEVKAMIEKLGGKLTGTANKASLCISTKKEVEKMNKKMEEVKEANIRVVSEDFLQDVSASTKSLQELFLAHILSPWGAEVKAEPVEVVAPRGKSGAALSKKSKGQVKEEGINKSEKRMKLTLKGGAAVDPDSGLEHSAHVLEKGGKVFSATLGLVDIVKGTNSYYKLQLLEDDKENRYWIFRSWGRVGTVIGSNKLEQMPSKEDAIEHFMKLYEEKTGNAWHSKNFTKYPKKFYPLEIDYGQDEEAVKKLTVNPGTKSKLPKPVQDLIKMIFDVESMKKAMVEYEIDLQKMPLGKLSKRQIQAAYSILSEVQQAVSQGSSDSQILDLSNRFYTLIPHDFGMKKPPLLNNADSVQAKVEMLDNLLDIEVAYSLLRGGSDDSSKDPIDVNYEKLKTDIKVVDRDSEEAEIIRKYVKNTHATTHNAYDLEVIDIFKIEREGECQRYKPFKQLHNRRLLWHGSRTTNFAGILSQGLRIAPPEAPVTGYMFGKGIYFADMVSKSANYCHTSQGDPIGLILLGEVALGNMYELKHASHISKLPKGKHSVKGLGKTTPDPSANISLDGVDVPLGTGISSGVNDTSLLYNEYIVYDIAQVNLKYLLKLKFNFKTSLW
Sequence of PARP7 (Q7Z3E1 whole entry): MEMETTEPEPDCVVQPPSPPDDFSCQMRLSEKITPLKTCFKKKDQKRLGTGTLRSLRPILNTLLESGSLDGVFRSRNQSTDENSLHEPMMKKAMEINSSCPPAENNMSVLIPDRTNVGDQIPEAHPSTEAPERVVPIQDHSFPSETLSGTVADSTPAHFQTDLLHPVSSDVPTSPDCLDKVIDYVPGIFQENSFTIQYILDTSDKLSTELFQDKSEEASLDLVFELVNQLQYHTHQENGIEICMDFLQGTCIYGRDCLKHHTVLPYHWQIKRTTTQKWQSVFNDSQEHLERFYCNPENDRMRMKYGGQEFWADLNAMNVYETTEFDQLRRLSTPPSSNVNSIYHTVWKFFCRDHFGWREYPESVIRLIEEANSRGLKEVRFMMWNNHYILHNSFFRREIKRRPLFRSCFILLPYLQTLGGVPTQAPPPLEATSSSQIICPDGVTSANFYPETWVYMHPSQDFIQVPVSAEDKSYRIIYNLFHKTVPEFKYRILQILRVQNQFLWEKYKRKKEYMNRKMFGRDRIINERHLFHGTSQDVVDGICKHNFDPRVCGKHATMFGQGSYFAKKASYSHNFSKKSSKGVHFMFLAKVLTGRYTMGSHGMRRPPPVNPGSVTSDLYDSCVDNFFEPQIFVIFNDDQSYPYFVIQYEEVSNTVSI
Sequence of PARP6 (Q2NL67 whole entry): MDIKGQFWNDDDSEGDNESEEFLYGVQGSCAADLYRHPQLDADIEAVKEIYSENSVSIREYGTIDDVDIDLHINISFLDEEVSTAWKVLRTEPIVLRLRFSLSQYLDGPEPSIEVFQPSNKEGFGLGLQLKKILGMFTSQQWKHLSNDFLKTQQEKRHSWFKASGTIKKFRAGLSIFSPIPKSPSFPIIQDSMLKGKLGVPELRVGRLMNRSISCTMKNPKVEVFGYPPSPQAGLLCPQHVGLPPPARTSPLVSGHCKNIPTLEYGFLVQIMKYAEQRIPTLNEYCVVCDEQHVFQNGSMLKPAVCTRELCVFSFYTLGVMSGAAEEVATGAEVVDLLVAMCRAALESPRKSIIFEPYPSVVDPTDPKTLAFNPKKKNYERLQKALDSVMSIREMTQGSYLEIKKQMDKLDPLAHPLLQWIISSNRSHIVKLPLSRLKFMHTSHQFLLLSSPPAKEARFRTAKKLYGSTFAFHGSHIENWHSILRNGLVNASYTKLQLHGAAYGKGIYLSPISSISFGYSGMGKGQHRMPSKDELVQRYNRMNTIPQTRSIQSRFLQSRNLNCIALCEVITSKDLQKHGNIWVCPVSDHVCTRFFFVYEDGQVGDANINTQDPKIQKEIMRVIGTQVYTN
Sequence of PARP11 (Q9NR21 whole entry): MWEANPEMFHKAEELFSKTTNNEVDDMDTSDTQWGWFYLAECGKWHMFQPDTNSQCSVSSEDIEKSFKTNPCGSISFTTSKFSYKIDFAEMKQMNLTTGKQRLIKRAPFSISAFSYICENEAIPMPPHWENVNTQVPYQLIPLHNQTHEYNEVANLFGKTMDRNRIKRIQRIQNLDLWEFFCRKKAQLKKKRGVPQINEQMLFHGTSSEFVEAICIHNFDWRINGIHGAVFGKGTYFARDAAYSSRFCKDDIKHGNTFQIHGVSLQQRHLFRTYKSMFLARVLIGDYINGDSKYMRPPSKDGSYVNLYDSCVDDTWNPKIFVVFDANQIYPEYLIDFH

Compound | inhibition at 10 µM [1] [%] | inhibition at 10 µM [2] [%] | inhibition at 10 µM [3] [%] | inhibition at 10 µM [4] [%] | telomere length [5] | β-catenin activity induced by loss of APC function [6] | % inhibition [1] [%] | % inhibition [2] [%] | % inhibition [3] [%] | % inhibition [4] [%] | expression of Axin2 [7]
CCN(C(=O)C1CCN(S(=O)(=O)c2cc3c(cc2Br)CCN3C(C)=O)CC1)c1cccc(C)c1 [IWR-8] | 0 | 8 | 12 | 0 | induced shortened telomere length in a dose-dependent manner | inhibits β-catenin activity induced by loss of APC function | – | – | – | – | –
O=C(Nc1cccc2cccnc12)c1ccc(N2C(=O)[C@@H]3[C@H](C2=O)[C@@H]2C=C[C@H]3C2)cc1 [IWR-1] | – | – | – | – | induced shortened telomere length in a dose-dependent manner | – | 0 | 7 | 2 | 0 | decrease in the expression of Axin2

— patent publication US10420758B2, “Indolinyl-sulfonamide inhibitors of tankyrase and methods of use thereof” (The Board of Regents of the University of Texas System, priority 2015, dated 2019)
